Values of other authors, collected in US20250339390A1 (priority 2018, published 2025).

O=NN(CCCl)C(=O)NCCCl [Carmustine, 1,3-bis(2-chloroethyl)-1-nitrosourea]
solubility in water: poorly soluble
